Target: T1, MaPimE (Mycobacteroides abscessus, UniProt A0ABD7HTP3)
T1 construct: gene D2E76_03800; full-length WT, His-tagged, pNYCOMPSC23, E. coli BL21(DE3) pLysS; membrane fraction (kinetics) or DDM-purified in MSP1E3D1/POPC nanodiscs with Fab-E6 (cryo-EM); 46 kDa
Assay: cryo-EM structure of the complex, […] Å
Format: binding
Settings: nanodisc, Fab-E6 bound; formed from added PPM; only first three prenyl units resolved

T1 sequence (A0ABD7HTP3 entry or part of it): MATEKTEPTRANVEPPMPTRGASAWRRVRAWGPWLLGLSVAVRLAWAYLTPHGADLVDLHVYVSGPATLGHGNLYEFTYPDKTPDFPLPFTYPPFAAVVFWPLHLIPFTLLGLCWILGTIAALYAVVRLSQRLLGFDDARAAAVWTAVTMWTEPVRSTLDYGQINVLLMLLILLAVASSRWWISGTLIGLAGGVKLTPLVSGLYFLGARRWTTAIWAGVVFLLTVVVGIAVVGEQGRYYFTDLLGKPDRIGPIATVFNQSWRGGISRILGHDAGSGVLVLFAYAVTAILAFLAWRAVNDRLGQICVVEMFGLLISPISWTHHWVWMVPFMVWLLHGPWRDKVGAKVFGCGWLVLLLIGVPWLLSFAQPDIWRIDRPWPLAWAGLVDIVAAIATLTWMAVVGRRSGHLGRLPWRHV

CC(C)=CCC/C(C)=C/CC/C(C)=C\CC/C(C)=C\CC/C(C)=C\CC/C(C)=C\CC/C(C)=C\CC/C(C)=C\CC/C(C)=C\CC/C(C)=C\COP(=O)(O)O [PP, polyprenyl phosphate]
cryo-EM structure of the complex, 3.5 Å: led us to interpret it as the PP portion of the PPM donor
